24 compounds from PubChem BioAssay (NCI) can be followed below.

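Results reflect a 48-hour exposure of cells in 96-well plates to compound at five concentrations. At the TGI there is no net growth.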

In the first test the test system is UACC-257 melanoma. In words: inhibition of tumour cell growth, NCI panel, 48 h.
Compound `CC(=O)O[C@@H]1[C@H](C(C)C)[C@@H](OC(C)=O)C/C(C)=C/CC[C@]2(C)O[C@@H]12` showed a TGI of over 100 µM.
Compound `CN1CCc2cc(N)cc3c2C1Cc1ccc(O)c(O)c1-3` (stereo unspecified) returned a TGI of 52.9 µM.
On the same count and under the same terms, with `CC(C)=CCc1c2c(c3occ(-c4ccc(O)cc4)c(=O)c3c1O)CC(C(C)(C)O)O2` (stereo unspecified) the figure was 29.1 µM; with `CC1(C)N=[N+]([O-])C1(C)C`, over 100 µM; with `COc1ccc(C2CC(c3c(O)ccc4ccccc34)=NN2C(C)=O)cc1OC` (stereo unspecified), over 100 µM.
The same measure, in the same setting: with `C1CN(c2nc3c(nnc4nc(N5CCOCC5)sc43)s2)CCO1` the figure was over 100 µM; with `COc1cc2nc3n(c(=O)c2cc1OC)-c1ccc([N+](=O)[O-])cc1C3=O`, over 100 µM; with `NC(N)=N/N=C/c1c(-c2ccc(N)cc2)nc2sccn12`, over 100 µM.
On the same count and under the same terms, with `COc1cc(Br)cc2cc(-c3cn4ccsc4n3)c(=O)oc12` the figure was over 100 µM; with `COc1ccc(N/N=C2\CCOc3ccc(C)cc3C2=O)cc1`, 54.6 µM; with `COC(=O)c1c(C)cccc1C1CN=NC12Cc1ccc(C)cc1C2=O` (stereo unspecified), over 100 µM.
Turning to `ClCCN1CCC2(CC1)SSC1(CCN(CCCl)CC1)S2`, the TGI is over 100 µM.
Same read-out and setting: the result for `C=CC1(C)CCC2C(=CCC3C2(C)CC(O)C(O)C3(C)COC2OC(C(=O)O)C(O)C(O)C2O)C1` (stereo unspecified) (tested in a mixture with another compound) reads over 100 µM; that for `C=C1C(=O)O[C@@H]2C(=O)[C@@H](C)CCC/C(C)=C/CC[C@@]3(C)O[C@@H]3C[C@@H]12`, over 100 µM; that for `Nc1nc(SCCc2ccccc2)c2[nH]cnc2n1`, 67.5 µM.
On the same count and under the same terms, with `Cc1ccccc1C(=O)N1CCc2c([nH]c3ccccc23)C1` the figure was 58.2 µM; with `Cc1nc2n(c1/C=C1/C(=O)Nc3cccc(Cl)c31)CCS2`, over 100 µM.
`O=C1CC(NC(=O)C(F)(F)F)c2c(Br)sc(N3CCNCC3)c21` (stereo unspecified) returned a TGI of over 100 µM.

The next test has as its system M14 melanoma. Kind of test: inhibition of tumour cell growth, NCI panel, 48 h.
`CC(=O)NC(Cc1ccc(O)cc1)C(=O)O` (stereo unspecified): the TGI is over 100 µM.
`O=C1CSC(c2ccc(Cl)cc2)N1c1ccc(Oc2ccc(Cl)cc2)c(Cl)c1` (stereo unspecified) displayed a TGI of 33.3 µM.
`COC(=O)C([C@H](NC1(c2ccccc2)c2ccccc2-c2ccccc21)C(=O)OC)N(NC(=O)OCc1ccccc1)C(=O)OCc1ccccc1` (mixture of isomers) returned a TGI of over 100 µM.
Turning to `CC[C@@H]1CC[C@@H]2[C@H](CC[C@]3(C)[C@@H](OC(C)=O)CC[C@@H]23)[C@H]1COC(C)=O`, the TGI turned out to be 76.6 µM.
`Cc1ccc(N=NC(=Nc2ccccc2)c2ccc(N(CCC#N)CCC#N)cc2)cc1` displayed a TGI of over 100 µM.
Same read-out and setting: with `O=c1ccc(-c2ccccc2)n[nH]1` the figure was over 100 µM.
In turn, `CC(=O)O[C@@H]1[C@H](C(C)C)[C@@H](OC(C)=O)C/C(C)=C/CC[C@]2(C)O[C@@H]12` gave a TGI of over 100 µM.
`CN1CCc2cc(N)cc3c2C1Cc1ccc(O)c(O)c1-3` (stereo unspecified): the TGI was over 100 µM.
On the same count and under the same terms, with `CC(C)=CCc1c2c(c3occ(-c4ccc(O)cc4)c(=O)c3c1O)CC(C(C)(C)O)O2` (stereo unspecified) the figure was 28.2 µM; with `CC1(C)N=[N+]([O-])C1(C)C`, over 100 µM; with `COc1ccc(C2CC(c3c(O)ccc4ccccc34)=NN2C(C)=O)cc1OC` (stereo unspecified), 69.4 µM.
The compound `C1CN(c2nc3c(nnc4nc(N5CCOCC5)sc43)s2)CCO1` registered a TGI of over 100 µM.
On the same count and under the same terms, with `COc1cc2nc3n(c(=O)c2cc1OC)-c1ccc([N+](=O)[O-])cc1C3=O` the figure was over 100 µM; with `NC(N)=N/N=C/c1c(-c2ccc(N)cc2)nc2sccn12`, 57.9 µM.
Same read-out and setting: the result for `COc1cc(Br)cc2cc(-c3cn4ccsc4n3)c(=O)oc12` reads over 100 µM.
As for `COc1ccc(N/N=C2\CCOc3ccc(C)cc3C2=O)cc1`, the TGI is over 100 µM.
Same read-out and setting: with `COC(=O)c1c(C)cccc1C1CN=NC12Cc1ccc(C)cc1C2=O` (stereo unspecified) the figure was over 100 µM; with `ClCCN1CCC2(CC1)SSC1(CCN(CCCl)CC1)S2`, over 100 µM.
`C=CC1(C)CCC2C(=CCC3C2(C)CC(O)C(O)C3(C)COC2OC(C(=O)O)C(O)C(O)C2O)C1` (stereo unspecified) (tested in a mixture with another compound) showed a TGI of over 100 µM.
`C=C1C(=O)O[C@@H]2C(=O)[C@@H](C)CCC/C(C)=C/CC[C@@]3(C)O[C@@H]3C[C@@H]12` returned a TGI of over 100 µM.
`Nc1nc(SCCc2ccccc2)c2[nH]cnc2n1`: the TGI was over 100 µM.
In turn, `Cc1ccccc1C(=O)N1CCc2c([nH]c3ccccc23)C1` came in with a TGI of 45.4 µM.
Still for that read-out and setting: the result for `Cc1nc2n(c1/C=C1/C(=O)Nc3cccc(Cl)c31)CCS2` reads over 100 µM; that for `O=C1CC(NC(=O)C(F)(F)F)c2c(Br)sc(N3CCNCC3)c21` (stereo unspecified), over 100 µM.

The next test relates to K-562 leukemia. In words: inhibition of tumour cell growth, NCI panel, 48 h.
`CC(=O)NC(Cc1ccc(O)cc1)C(=O)O` (stereo unspecified) gave a TGI of over 100 µM.
Still for that read-out and setting: the result for `O=C1CSC(c2ccc(Cl)cc2)N1c1ccc(Oc2ccc(Cl)cc2)c(Cl)c1` (stereo unspecified) reads over 100 µM; that for `COC(=O)C([C@H](NC1(c2ccccc2)c2ccccc2-c2ccccc21)C(=O)OC)N(NC(=O)OCc1ccccc1)C(=O)OCc1ccccc1` (mixture of isomers), over 100 µM; that for `CC[C@@H]1CC[C@@H]2[C@H](CC[C@]3(C)[C@@H](OC(C)=O)CC[C@@H]23)[C@H]1COC(C)=O`, 36.2 µM.
The same measure, in the same setting: the result for `Cc1ccc(N=NC(=Nc2ccccc2)c2ccc(N(CCC#N)CCC#N)cc2)cc1` reads over 100 µM; that for `O=c1ccc(-c2ccccc2)n[nH]1`, over 100 µM.
The compound `CC(=O)O[C@@H]1[C@H](C(C)C)[C@@H](OC(C)=O)C/C(C)=C/CC[C@]2(C)O[C@@H]12` displayed a TGI of over 100 µM.
`CN1CCc2cc(N)cc3c2C1Cc1ccc(O)c(O)c1-3` (stereo unspecified) gave a TGI of 85.3 µM.
Still for that read-out and setting: with `CC(C)=CCc1c2c(c3occ(-c4ccc(O)cc4)c(=O)c3c1O)CC(C(C)(C)O)O2` (stereo unspecified) the figure was 42.1 µM.
In the case of `CC1(C)N=[N+]([O-])C1(C)C`, the TGI was over 100 µM.
Still for that read-out and setting: with `COc1ccc(C2CC(c3c(O)ccc4ccccc34)=NN2C(C)=O)cc1OC` (stereo unspecified) the figure was 43.8 µM; with `C1CN(c2nc3c(nnc4nc(N5CCOCC5)sc43)s2)CCO1`, over 100 µM; with `COc1cc2nc3n(c(=O)c2cc1OC)-c1ccc([N+](=O)[O-])cc1C3=O`, over 100 µM.
Same read-out and setting: the result for `NC(N)=N/N=C/c1c(-c2ccc(N)cc2)nc2sccn12` reads 66.1 µM; that for `COc1cc(Br)cc2cc(-c3cn4ccsc4n3)c(=O)oc12`, over 100 µM; that for `COc1ccc(N/N=C2\CCOc3ccc(C)cc3C2=O)cc1`, over 100 µM.
On the same count and under the same terms, the result for `COC(=O)c1c(C)cccc1C1CN=NC12Cc1ccc(C)cc1C2=O` (stereo unspecified) reads over 100 µM; that for `ClCCN1CCC2(CC1)SSC1(CCN(CCCl)CC1)S2`, over 100 µM.
Compound `C=CC1(C)CCC2C(=CCC3C2(C)CC(O)C(O)C3(C)COC2OC(C(=O)O)C(O)C(O)C2O)C1` (stereo unspecified) (tested in a mixture with another compound) yielded a TGI of over 100 µM.
On the same count and under the same terms, with `C=C1C(=O)O[C@@H]2C(=O)[C@@H](C)CCC/C(C)=C/CC[C@@]3(C)O[C@@H]3C[C@@H]12` the figure was 34.8 µM; with `Nc1nc(SCCc2ccccc2)c2[nH]cnc2n1`, over 100 µM.
Still for that read-out and setting: with `Cc1ccccc1C(=O)N1CCc2c([nH]c3ccccc23)C1` the figure was 62.5 µM.
In turn, `Cc1nc2n(c1/C=C1/C(=O)Nc3cccc(Cl)c31)CCS2` registered a TGI of over 100 µM.
On the same count and under the same terms, with `O=C1CC(NC(=O)C(F)(F)F)c2c(Br)sc(N3CCNCC3)c21` (stereo unspecified) the figure was over 100 µM.
